# Assay results: US20260125388A1 (priority 2022, published 2026)
# Read-outs that look alike come from different tables or passages of the source.
# Tests used:
# in vitro = conditions: PAMPA, pH 7.4
# Method: (§1) The artificial membrane was prepared by carefully pipetting 15 μL of the 5% (v/v) hexadecane in hexane solution to each of the wells of the donor plate. The plate was placed into a fume hood for 1 h to ensure complete evaporation of the hexane. After the hexane had evaporated, 300 μL of PBS with 5% (v/v) DMSO was added to each of the wells of the acceptor plate. The hexadecane treated donor plate was then placed on top of the acceptor plate taking care that the underside of the membrane is completely in contact with the solution in each of the acceptor wells. […] The lid was placed on the plates and the entire plate sandwich was placed into a closed humid environment. The container was then placed on a reciprocal shaker for agitation at about 100 rpm. The time at the beginning of the incubation was recorded, as this is a thermodynamic-based assay. The incubation was then allowed to continue for 18 h. The donor plate was removed and 50 μL of the acceptor solution was transferred to the UV plate. Drug solutions at the theoretical equilibrium concentration (100 μM) was also prepared and transferred to the UV plate. The absorbance of the solutions in the UV plate was then scanned from 250-600 nm with 1 nm steps and a 5 nm bandwidth. Log Pe was calculated as follows (Equation 1).
# HEK293 cells = experiment: Cytotoxicity, CellTiter-Glo cell viability assay; type: cell-based, human; conditions: for Cytotoxicity LD50: HEK293 cells, CellTiter-Glo, Table 3; for LD50 HEK293: human kidney cells, Table 2
# Method: Compounds with increased cytotoxicity can be identified using an in vitro cytotoxicity assay. Therefore, human embryonic kidney 293T (HEK293T) cell lines were purchased (ATCC) and cultured in 75 cm2 flasks (CellStar). Cells were grown in DMEM/High Glucose (Hyclone, #SH3024301) media to which non-essential amino acids (Hyclone, #SH30238.01), 10 mM HEPES (Hyclone, #SH302237.01), 5×106 units of penicillin and streptomycin (Hyclone, #SV30010), and 10% of heat inactivated fetal bovine serum (Gibco, #10082147) were added. Cells were harvested using 0.05% Trypsin (Hyclone, #SH3023601). The cell viability assay was evaluated using CellTiter-Glo™ Luminescent Cell Viability Assay Kit (Promega, Madison, WI), which contains luciferase and all its substrate except ATP. The controls for the cytotoxicity assay used were (E)-10-(bromotriphenylphosphoranyl)decyl 4-(4-(tert-butyl)phenyl)-4-oxobut-2-enoate (400 μM in DMSO, positive control) and DMSO (negative control). All luminescence readings were performed on a Tecan Infinite M1000 plate reader. Small volume transfers were performed on the Tecan Freedom EVO liquid handling system with a 100 nL pin tool transfer (V&P Scientific). Serial dilutions were done in 96-well polypropylene plates (Coming, #3365) and assays were conducted in 384-well white optical bottom plates. The assays were carried out in quadruplet in three independent runs. The data were normalized to the controls and if possible analyzed by nonlinear regression (GraphPad Prism).
# GABAA receptor = GABAA receptor binding, competition assay with [3H]-flunitrazepam and rat brain membranes; conditions: for GABAAR binding, % inhibition at 10 μM: Table 3
# Method: GABAA receptor binding: Rat brain membranes were prepared from frozen tissue that was thawed on ice and homogenized on ice in 10 volumes of cold lysis buffer (50 mM Tris HCl, pH 7.4, containing protease inhibitor cocktail from Roche) using a Polytron homogenizer (6 pulses and 10 seconds per pulse). The homogenate was centrifuged at 1,000×g for 10 min at 4° C. to obtain the supernatant. The supernatant was then centrifuged at 40,000×g for 20 min, and the resulting supernatant decanted and replaced with the same ice-cold lysis buffer. Two or three additional rounds of homogenization-centrifugation were performed to ensure thorough homogenization and also to wash out endogenous ligands. The final pellet was resuspended in the same buffer and homogenized one last time. […] Total binding and nonspecific binding were determined with reference compound clonazepam. […] Scintillation cocktail is then melted onto the microwave-dried filters on a hot plate and radioactivity counted in a Microbeta counter. The data (n=6) were analyzed by nonlinear regression.
# [1] = Aqueous solubility, shake flask in PBS buffer; type: physicochemical; conditions: for solubility at 24 h: PBS buffer, aqueous buffer, thermodynamic from solid
# Method: 5-50 mg of compound was added to 500 μL of PBS buffer at pH 7.4. The pH was adjusted if necessary, using a 1M NaOH solution. The solutions were vortexed for 10 s, sonicated for 2 min and agitated with a horizontal shaker in a closed vial for 24 h. The mixtures were transferred to an Eppendorf tube and centrifuged for 5 min at 16000×g followed by filtration through […] cellulose acetate spin X centrifuge filter (Costar). 200 μL of filtrate was transferred to a new Eppendorf tube and 200 μL of methanol was added and then subsequent dilution was made in 50:50 methanol/PBS buffer water if necessary. After mixing, 50 μL were transferred into a 384 well plate (Coring UV star, 781801) for UV detection at 250-600 nm (Tecan M1000). The assay was carried out with three independent samples of each compound. The concentration of each solution was determined with a calibration curve in 50:50 methanol/PBS buffer water. Absorbance of corresponding methanol PBS blank were recorded and subtracted from the absorbance of calibration curve solutions and from the samples.
# [2] = parallel artificial membrane permeation assay at pH 7.4
# Method: as §1
# [3] = tested on: IL-6, IL-10, IL-13 and TSLP mRNA in mouse ears; experiment: RT-PCR of cytokine mRNA in ears of MC903 challenged mice; type: in vivo; conditions: ear mRNA, vs vehicle
# Method: RT-PCR was used to assay the change in cytokines in MC903 challenged animals treated with PI-301. Left mouse ears stored at −20° C. were thawed, rinsed with water and homogenized in 500 μL RLT buffer (Qiagen, 79216). The liquid was added to a QIAshredder (Qiagen, 79654) and centrifuged at 6000 g for 2 min. 350 μL of the supernatant was combined with 350 μL 70% ethanol and mRNA purified with a RNeasy Mini Kit (Qiagen, 74104). mRNA was analyzed using the Accuris qMAX Green One-Step RT-qPCR Kit (Accuris Instruments) along with primers for IL-4, IL-5, IL-6, IL-10, IL-13, INFγ, and TSLP. Data were acquired using an Eppendorf Mastercycler Pro (45° C. 10 min, 95° C. 2 min, [95° C. 30 s, 55° C. 1 min, 72° C. 2 min]×45) and analyzed by the Delta and Delta-Delta Ct method. Each measurement was carried out in triplicate.
# [4] = tested on: C57/BL6 mice challenged with MC903; experiment: Acute treatment in the MC903 mouse model, scratch count; type: in vivo; conditions: single oral gavage on day 19; recording from 40 min after dose; oclacitinib 45 mg/kg, PI-301 100 mg/kg; p<0.05 vs vehicle
# Method: In another study, the acute treatment effects of oclacitinib (a JAK inhibitor approved for veterinary use) and PI-301 were studied in the MC903 model using C57/BL6 mice. As described previously, MC903 was applied topically on both sides of both ears (1 nmol). On day 19 of the study (D1), drugs or vehicle were administered to individual treatment groups by oral gavage: oclacitinib (45 mg/kg) or PI-301 (100 mg/kg). Mice were video recorded for 60 minutes beginning 40 minutes after drug administration and scratches counted.
# [5] = tested on: C57/BL6 male mice challenged with MC903; experiment: Mouse atopic dermatitis model, MC903 challenge, twice daily oral dosing; type: in vivo
# Description: An established mouse model of atopic dermatitis (AD) was used to evaluate the efficacy of PI-301 ((R)-8-bromo-6-(2-fluorophenyl)-4-methyl-4H-benzo[f]-imidazo[1,5-a][1,4]diazepine-3-carboxylic acid) in reducing ear thickness, scratching frequency, and inflammatory markers following MC903 challenge (for background on the model see: J Invest Dermatol 138, 2606-2616; Proc Natl Acad Sci USA, 103, 11736-11741; Sci Transl Med, 5, 170ra116; J Invest Dermatol, 138, 1555-1563). The increase of ear thickness is based on the increased diameter of stratum, epidermis, and dermis as determined by standard histological analysis. The thickening of the stratum is based on parakeratosis and hyperkeratosis, the thickening of the epidermis is based on acanthosis and spongiosis and the thickening of the dermis is based on inflammatory infiltration. This reflects increased numbers of neutrophils, mast cells, and, to a lesser extent, eosinophils.
# C57/BL6 male mice 8 weeks of age were group housed under a 12 h light/dark cycle. For oral dosing, groups of 8 mice were each given twice daily treatment by voluntary feeding of vehicle (peanut butter) or PI-301 (100 mg/kg in vehicle). Animal weights were recorded daily. Three times per week animals were administered MC903 (1 nmol) on both ears topically. Ear thickness was measured with calipers and photographed.
# [6] = 10 μM, 3H-flunitrazepam, rat brain extract
# [7] = read-out: GABAAR binding (IC50), value in brackets, 3H-flunitrazepam, rat brain extract, Table 3, unit inferred
Compound,Papp (in vitro) [×10⁻⁶ cm/s],Cytotoxicity LD50 (HEK293 cells) [µM],"GABAAR binding, % inhibition at 10 μM (GABAA receptor; [6]) [%]",IC50 (GABAA receptor; [7]) [nM],LD50 HEK293 (HEK293 cells) [µM],Permeability (log Pe (cm/s)) [2] [cm/s],scratches counted over 60 minutes [4],other results
C#Cc1ccc2c(c1)C(c1ccccc1F)=NC1(CC1)c1c(C(=O)OCC)ncn1-2 [Compound 18],25.1,>150,56,509,–,–,–,"solubility at 24 h ([1]; pH 7.2, read-out: Aqueous solubility): 0.053 ± 0.003 mM"
"O=C(O)c1ncn2c1C1(CC1)N=C(c1ccccc1F)c1ccccc1-2 [Compound 32, 6-(2-fluorophenyl)spiro[benzo[f]imidazo[1,5-a][1,4]diazepine-4,1′-cyclopropane]-3-carboxylic acid]",–,>300,74,289,>400,−7.0 ± 0.14,–,"Aqueous solubility (footnote b: mM) ([1]; pH 7.2, cells marked b): 15.1 ± 0.1 ^b mM"
"CC1(C)N=C(c2ccccc2F)c2cc(Br)ccc2-n2cnc(C(=O)O)c21 [Compound 34, 8-bromo-6-(2-fluorophenyl)-4,4-dimethyl-4H-benzo[f]imidazo[1,5-a][1,4]diazepine-3-carboxylic acid]",–,>300,74,4050,>400,−7.0 ± 0.22,–,"% Inhibition at 10 μM (GABAA receptor; 10 μM, [3H]-flunitrazepam, rat brain, Table 1): 74.4%; IC50 (GABAA receptor; [3H]-flunitrazepam, rat brain, Table 1): 4050 nM; solubility at 24 h ([1]; pH 7.2, cells marked b, read-out: Aqueous solubility (footnote b: mM)): 4.4 mM"
"CCC1N=C(c2ccccc2F)c2cc(Br)ccc2NC1=O (stereo not drawn) [Compound 35, 7-bromo-3-ethyl-5-(2-fluorophenyl)-1,3-dihydro-2H-benzo[e][1,4]diazepin-2-one]",2,>150,95,134,–,–,–,Aqueous solubility ([1]; pH 7.2): 397 ± 31 µM
"C[C@H]1N=C(c2ccccc2F)c2cc(Br)ccc2-n2cnc(C(=O)O)c21 [PI-301, (R)-8-bromo-6-(2-fluorophenyl)-4-methyl-4H-benzo[f]-imidazo[1,5-a][1,4]diazepine-3-carboxylic acid]",–,–,–,–,–,–,significant (p<0.05) reduction in scratches,"IL-6 induction [3]: reduced induction; IL-10 induction [3]: reduced induction; IL-13 induction [3]: reduced induction; TSLP induction [3]: reduced induction; number of scratches ([5]; 100 mg/kg oral twice daily, days 19 and 22, vs vehicle): significantly reduced; increase of ear thickness due to MC903 ([5]; 100 mg/kg oral twice daily, significant on day 10, vs vehicle): reduced the increase of ear thickness; thicknesses of the dermis and epidermis ([5]; histology of H&E stained ear sections, p<0.005 vs vehicle): significant differences"
"CNS(=O)(=O)C[C@H]1CC[C@H](N(C)c2ncnc3[nH]ccc23)CC1 [oclacitinib, reference compound]",–,–,–,–,–,–,significant (p<0.05) reduction in scratches,–
